Test results as given in PubChem BioAssay (NCI).
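48-hour exposure; five concentrations; linearly interpolated endpoints. TGI marks complete inhibition of growth.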

Tests used:
Experiment in all cases: NCI anticancer screen, dose series, 48 h
MDA-MB-435 = tested on: MDA-MB-435
K-562 leukemia = tested on: K-562 leukemia
RXF 393 renal = tested on: RXF 393 renal
SK-MEL-2 melanoma = tested on: SK-MEL-2 melanoma
PC-3 prostate = tested on: PC-3 prostate
SF-295 CNS = tested on: SF-295 CNS
OVCAR-5 ovarian = tested on: OVCAR-5 ovarian
UACC-257 melanoma = tested on: UACC-257 melanoma
BT-549 breast = tested on: BT-549 breast
HCT-116 colon = tested on: HCT-116 colon

Measured: TGI

Cn1c2ccc(C3=NCCN3)cc2c2cc(C3=NCCN3)ccc21
> 100 µM: all assays above
